The values that follow are results of earlier work, collected in US20050180940A1, “Protect against hair loss” (priority 2004, published 2005).

The data set concerns common male-pattern baldness. The conditions noted are these: two daily topical applications, person, after 3-4 weeks.

For sucralfate, the “Effect on common male-pattern baldness (hair appearance)” value is recorded as “appearance of hair in the otherwise bald lateral-frontal areas in the scalp”.
